Data: patent US11680298B2, “Method of identifying risk of cancer and therapeutic options” (Agency for Science, Technology and Research, priority 2016, dated 2023)
“Also recorded” adds a separate entry of the source.

Assays:
[1] = system: MB468 tumourspheres; experiment: Mammosphere (tumoursphere) formation assay, MB468; format: cell-based; settings: MB468 cell line
Description: (§1) Mammosphere Formation Assay PDX-derived tumoursphere cells were trypsinized and passed through 40 μm cell strainer to achieve single cell suspensions. 3×10^4 cells were seeded in 6-well ultra-low attachment plates (Corning, N.Y.; CLS3471) in serum-free DMEM/F12 supplemented with N2 and B27 (Gibco, Grand Island, N.Y.), 20 ng/ml epidermal growth factor (MACS, Auburn, Calif.), 20 ng/ml basic fibroblast growth factor (MACS, Auburn, Calif.), 0.2 μM Thiazovivin ([…] Technologies, Vancouver, BC) and penicillin/streptomycin (Gibco, Carlsbad, Calif.). For breast cancer cell lines and MCF10A cell line, 3×10^4 cells were seeded in 6-well ultra-low attachment plates in Mammocult medium (Stem Cell Technologies, Vancouver, BC, Canada), supplemented with fresh hydrocortisone (0.5 μg/ml) and heparin (1:500). Mammospheres were maintained at 37° C. with 5% CO2 and topped up with medium every 3 days. After 7-9 days, mammospheres were stained with INT (2-(4-iodophenyl)-3-(4-nitrophenyl)-5-phenyl-2H-tetrazolium chloride, Sigma-Aldrich) and quantified. Imaging and quantification were done using GelCount apparatus and associated software (Oxford Optronix, Abingdon, UK). […] Cell Proliferation Assay

[2] = system: MB231 tumourspheres; experiment: Mammosphere (tumoursphere) formation assay, MB231; format: cell-based; settings: MB231 cell line
Description: as §1

[3] = system: PDX-derived tumourspheres; experiment: Mammosphere (tumoursphere) formation assay, PDX-derived tumourspheres; format: cell-based, human; settings: four different PDX-derived tumourspheres
Description: as §1

[4] = system: ER positive and ER negative breast cancer cell lines tumourspheres; experiment: Tumoursphere growth in breast cancer cell lines with or without 1q21.3 amplification; format: cell-based; settings: increasing dose of pacritinib
Description: For this purpose, the 1q21.3 gene amplification in a series of breast cancer cell lines was profiled using ddPCR (FIG. 6A). Of note, 1q21.3 status in these cell lines was in general correlated with phospho-IRAK1 and expression of S100A8/9 (FIG. 6B and FIG. 14A), but not with phospho-JAK2 status (FIG. 6B).
Mammosphere Formation Assay PDX-derived tumoursphere cells were trypsinized and passed through 40 μm cell strainer to achieve single cell suspensions. 3×10^4 cells were seeded in 6-well ultra-low attachment plates (Corning, N.Y.; CLS3471) in serum-free DMEM/F12 supplemented with N2 and B27 (Gibco, Grand Island, N.Y.), 20 ng/ml epidermal growth factor (MACS, Auburn, Calif.), 20 ng/ml basic fibroblast growth factor (MACS, Auburn, Calif.), 0.2 μM Thiazovivin ([…] Technologies, Vancouver, BC) and penicillin/streptomycin (Gibco, Carlsbad, Calif.). For breast cancer cell lines and MCF10A cell line, 3×10^4 cells were seeded in 6-well ultra-low attachment plates in Mammocult medium (Stem Cell Technologies, Vancouver, BC, Canada), supplemented with fresh hydrocortisone (0.5 μg/ml) and heparin (1:500). […] After 7-9 days, mammospheres were stained with INT (2-(4-iodophenyl)-3-(4-nitrophenyl)-5-phenyl-2H-tetrazolium chloride, Sigma-Aldrich) and quantified. Imaging and quantification were done using GelCount apparatus and associated software (Oxford Optronix, Abingdon, UK). […]

[5] = system: MB231 tumours; experiment: In vivo pacritinib sensitivity test, MB231 orthotopic xenograft; parameters: species or system NOD-SCID mice; settings: 1q21.3 non-amplified MB231; 50, 100 and 150 mg/kg pacritinib daily by oral gavage for 21 days
[6] = system: S100A7/8/9; experiment: Real time RT-PCR of S100A7/8/9 expression in HCC70 xenograft; format: in vivo, NOD-SCID mice; settings: HCC70 xenograft (n=4) treated with pacritinib
Description: (§2) Mice were then dosed daily by oral gavage for 21 days. Tumour growth was monitored for 1 month.
Total RNA was isolated using TRIzol® reagent (Life Technologies, Carlsbad, Calif.; 15596026) and purified with Direct-zol™ RNA MiniPrep (Zymo Research, Irvine, Calif.; R2050). Reverse transcription and quantitative PCR assays were performed using High-Capacity cDNA Reverse Transcription Kit (Applied Biosystems, Carlsbad, Calif.; 4368813) and KAPA SyBr Fast qPCR kit (KAPA Biosystems, Wilmington, Mass.; KK4601). For quantification of mRNA levels, GAPDH level was used as an internal control. All reactions were analysed in an Applied Biosystems PRISM 7500 Fast Real-Time PCR system in 96-well plate format. For RNA extraction of xenograft tumours, snap frozen samples were resuspended in TRIzol® reagent and homogenized with QIAGEN TissueLyzer II as described by the manufacturer, followed by purification with Direct-zolI™ RNA MiniPrep.

[7] = system: EL12-58 PDX tumours; experiment: Neoadjuvant breast cancer PDX model of tumour recurrence; format: in vivo, NOD-SCID mice; settings: after paclitaxel-induced regression and surgery; 20 mg/kg paclitaxel, 150 mg/kg pacritinib or both
[8] = target: IRAK1 (Homo sapiens, UniProt P51617); experiment: Western blot of phospho-IRAK1 in HCC70 xenograft; format: in vivo, NOD-SCID mice; parameters: For protein extraction of xenograft tumours, snap frozen samples were resuspended in RIPA buffer; from tissue; host or cells: HCC70 xenograft tumour from NOD-SCID mice; settings: HCC70 xenograft (n=4) treated with pacritinib
Description: as §2
All immunoblots shown in this specification represent at least two independent experiments. In brief, cells were washed with PBS and lysed in RIPA buffer supplemented with protease and phosphatase inhibitors and further sonicated using an XL2000 Microson Ultrasonice Processor (Misonix). Equal amounts of protein extract were separated on SDS-polyacrylamided gels and transferred to PVDF membranes. Membranes were further blocked with 5% milk or BSA, and then probed with the following antibodies: anti-IRAK1 was purchased from Santa Cruz Biotechnology (Santa Cruz, Calif.; sc-7883), anti-phospho-IRAK1 (T209) was purchased from Assay Biotech (Sunnyvale, Calif.; A1074), anti-JAK2 (Danvers, Mass.; #3230) and anti-phospho-JAK2 ([…]) (Danvers, Mass.: #3774) were purchased from Cell Signaling Technology, anti-actin was purchased from Sigma Aldrich CA; A5441). For protein extraction of xenograft tumours, snap frozen samples were resuspended in RIPA buffer supplemented with protease and phosphatase inhibitors and homogenized with QIAGEN TissueLyzer II as described by the manufacturer, followed by immunoblotting as described above.

Sequence of IRAK1 (P51617 whole entry): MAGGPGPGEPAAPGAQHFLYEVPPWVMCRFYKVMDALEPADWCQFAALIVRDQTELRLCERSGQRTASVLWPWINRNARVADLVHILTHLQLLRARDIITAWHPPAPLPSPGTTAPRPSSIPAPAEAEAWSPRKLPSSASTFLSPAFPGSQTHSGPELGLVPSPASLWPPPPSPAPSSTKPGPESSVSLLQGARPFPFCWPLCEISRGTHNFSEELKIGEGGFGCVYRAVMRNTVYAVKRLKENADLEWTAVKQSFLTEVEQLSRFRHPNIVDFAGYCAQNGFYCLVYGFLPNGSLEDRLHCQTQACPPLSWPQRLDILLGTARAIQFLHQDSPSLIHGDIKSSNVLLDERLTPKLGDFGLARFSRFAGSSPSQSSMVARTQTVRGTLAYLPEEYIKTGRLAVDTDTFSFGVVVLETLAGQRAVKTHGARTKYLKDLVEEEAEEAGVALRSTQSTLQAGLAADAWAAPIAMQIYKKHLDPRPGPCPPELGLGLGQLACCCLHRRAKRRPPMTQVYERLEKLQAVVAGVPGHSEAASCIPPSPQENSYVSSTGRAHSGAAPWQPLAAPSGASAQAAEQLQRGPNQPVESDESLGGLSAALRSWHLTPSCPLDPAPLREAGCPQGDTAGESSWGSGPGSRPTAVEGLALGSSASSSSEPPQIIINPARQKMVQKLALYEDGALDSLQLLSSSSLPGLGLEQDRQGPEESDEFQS

## C1=C/COCc2cc(ccc2OCCN2CCCC2)Nc2nccc(n2)-c2cccc(c2)COC/1 [pacritinib]
[1]
  number of tumourspheres: strong tumoursphere inhibitory effect
[2]
  number of tumourspheres: little effect
[3]
  tumoursphere growth: strong tumoursphere growth inhibition
[4]
  tumoursphere growth, 1q21.3 amplified versus non-amplified cell lines: preferential growth inhibition of breast cancer cells containing amplified S100A8 and/or S100A9 genes; also recorded: more effective in impairing tumoursphere growth in cancer cell lines positive for 1q21.3 amplification compared to negative cell lines; also recorded: more sensitive to pacritinib treatment compared to cancer cells without 1q21.3 amplification
[5]
  tumour growth: no obvious effect
[6]
  S100A7/8/9 expression in xenograft: downregulation
[7]
  tumour regrowth after surgical removal of residual tumour: slowed down
[8]
  phospho-IRAK1 level in xenograft: downregulation of phospho-IRAK1
